System: murine fibroblasts (NIH3T3) over-expressing human IGF-1 receptor
Test: Inhibition of IGF-stimulated cell proliferation (BrdU incorporation), Test (c)
Format: cell-based
Details: inhibition of IGF-stimulated proliferation in NIH3T3 over-expressing human IGF-1 receptor
Experimental: c) Inhibition of IGF-stimulated Cell Proliferation
The construction of murine fibroblasts (NIH3T3) over-expressing human IGF-1 receptor has been described by Lammers et al (EMBO J, 8, 1369-1375, 1989). These cells show a proliferative response to IGF-I which can be measured by BrdU incorporation into newly synthesised DNA. Compound potency was determined as causing inhibition of the IGF-stimulated proliferation in the following assay:
Compounds are initially dissolved in DMSO to 10 mM, followed by dilutions in DMEM+1% FCS+glutamine to give a range from […] in 1-0.00045% DMSO final concentration in assay well.
Exponentially growing NIH3T3/IGFR cells were harvested and seeded in complete growth medium into a flat-bottomed 96 well tissue culture grade plate (Costar 3525) at 1.2×10^4 cells per well in a volume of 100 μl.
Growth medium was carefully removed from each well using a multi-channel pipette. Wells were carefully rinsed three times with 200 μl with HBSS. 100 μl of starvation medium was added to each well and the plate was re-incubated for 24 hours.
50 μl of a 4× concentrate of test compound was added to appropriate wells. Cells were incubated for 30 minutes with compound alone before the addition of IGF. For cells treated with IGF, an appropriate volume (i.e. 25 μl) of starvation medium was added to make a final volume per well up to 200 μl followed by 25 μl of IGF-1 at 160 ng/ml (to give a final concentration of 20 ng/ml). […] The plate was re-incubated for 20 hours.
The incorporation of BrdU in the cells (after a 4 h incorporation period) was assessed using the BrdU Cell Proliferation Elisa according to the manufacturer's protocol.

| SMILES | IC50 [µM] | IC50 (Mus musculus) [µM] |
| --- | --- | --- |
| Clc1cnc(N2CCCC2c2cc(C3CC3)no2)nc1Nc1cc(C2CC2)[nH]n1 (stereo not shown) [Example 5, 5-Chloro-2-[2-(3-cyclopropylisoxazol-5-yl]pyrrolidin-1-yl]-4-(5-cvlopropyl-1H-pyrazol-3-ylamino)phyrimidine] | 0.13 |  |
| Cc1cc(Nc2ccnc(N3CCCC3c3cc(-c4ccccn4)no3)n2)n[nH]1 (stereo not shown) [Example 23, 4-(5-Methyl-1H-pyrazol-3-ylamino)-2-{2-[3-(pyrid-2-yl)isoxazol-5-yl]pyrrolidin-1-yl}pyrimidine] |  | 0.11 |
| Cc1cc(Nc2cc(C(F)(F)F)nc(N3CCCC3c3cc(-c4ccccn4)no3)n2)n[nH]1 (stereo not shown) [Example 35, 4-(5-Methyl-1H-pyrazol-3-ylamino)-2-{2-[3-(pyrid-2-yl)isoxazol-5-yl]pyrrolidin-1-yl}-6-trifluoromethylpyrimidine] |  | 0.56 |
| Cc1cc(Nc2nc(N3CCC[C@H]3c3cc(-c4nccs4)no3)ncc2Cl)n[nH]1 [Example 38, S-5-Chloro-2-{2-[3-(thiazol-2-yl)isoxazol-5-yl]pyrrolidin-1-yl}-4-(5-methyl-1H-pyrazol-3-ylamino)pyrimidine] | 0.054 |  |

From US7579349B2, “4-(pyrazol-3-ylamino) pyrimidine derivatives for use in the treatment of cancer” (AstraZeneca AB, priority 2003, dated 2009)
